Reference: patent US11207301B2, “Sphingosine 1 phosphate receptor agonists for neuroprotection” (RECEPTOS LLC, priority 2017, dated 2021)

How the values were obtained:
Format in all cases: cell-based
[1] = system: ERK phosphorylation in primary rat astrocytes; assay: ERK phosphorylation in primary rat astrocytes (MSD pERK assay); settings: Astrocyte, 10 min, 10-minute exposure, mean of n=3
Protocol: (§1) For the experiments using rat primary astrocytes, eight-point concentration-response curves were generated for AKT and ERK phosphorylation in primary rat astrocytes cultures in response to a 10-minute treatment with ozanimod (100 nM-46 pM), Compound 3 (10 nM-5 pM), Compound 1 (10 nM-5 pM), or FTY720-P (10 nM-5 pM). Phosphorylation of AKT and ERK was quantified using Meso Scale Discovery assay kits (MSD Mutli-Spot Phopho-AKT (Ser473) Assay Kit and MSD Multi-Spot MAP Kinase Phosphoprotein Assay Whole Cell Lysate Kit) and imaging platform. AKT and ERK phosphorylation within treated astrocytes were assessed as the mean change in signal intensity compared to DMSO vehicle and the half maximal effective concentration (EC50) was determined using non-linear regression.
(§2) Embryonic day18 (E18) rat cortices were purchased from BrainBits LLC. (Springfield, Ill.) and were cultured according to the supplier's protocol. Briefly, cortices were incubated at 37° C. for 10 minutes in activated papain solution before trituration in hibernation medium containing B27 supplement using a modified siliconized glass Pasteur pipette. The cell suspension was centrifuged at 1100×g for 1 minute at room temperature (RT). The cell pellet was then resuspended in NbAstro medium (BrainBits LLC.) and the live cell density was assessed using a cell counter. Primary cells were plated at a density of 7500 cells/cm2 in T75 tissue culture flasks coated with poly-D-lysine (PDL) in a total volume of 12 mL of NbAstro media, and incubated for 10-14 days at 37° C. 5% CO2. After 10-14 days, primary astrocytes in passage 0 (P0) that had reached confluency in the T75 flasks were detached using TrypLE detachment reagent, pelleted at 300×g, and plated into poly-d-lysine coated T225 flasks in 20 mL of NbAstro media, and incubated for another 7 days at 37° C. 5% CO2. After 7 days, primary P1 astrocytes in confluent T225 flasks were detached using TrypLE detachment reagent, pelleted at 300×g, and plated intopoly-d-lysine coated 96-well plates at 10,000 cells per well in 200 μL of NbAstro media, and incubated for 7 days at 37° C. 5% CO2. After 7 days, P2 primary astrocytes were utilized for pAKT and pERK assays.
(§3) The pERK (phosphorylated ERK)/pMAPkinase assay was performed according to the manufacturer's protocol. Briefly, MSD pERK/pMAPkinase plates were blocked for 1-2 hours by adding 150 μL of blocker A prepared in 1× Tris wash buffer. […] Following antibody incubation, plates were washed three times with 150 μL of 1× Tris wash buffer and 1× read buffer (150 μL/well) was added. Finally, the plates were read in the MSD imager platform to assess the pERK levels.
(§4) AKT and ERK phosphorylation data were analyzed by non-linear regression (GraphPad Prism, version 6) to determine the EC50 values.

[2] = system: ERK phosphorylation in primary human astrocytes; assay: ERK phosphorylation in primary human cortical astrocytes (AlphaLISA SureFire Ultra); settings: Astrocyte, 10 min, 10-minute exposure, n=3-5
Protocol: For the experiments using mouse and human primary astrocytes, ten-point concentration-response curves (90 nM-4.57 pM or 30 nM-1.52 pM) were generated for AKT and/or ERK phosphorylation in primary human and mouse cortical astrocytic cultures in response to a 10-minute treatment with ozanimod, Compound 3, Compound 1, or FTY720-P. AKT and ERK phosphorylation were quantified using AlphaLISA SureFire Ultra Assay kits and the EnVision Plate Reader. AKT and ERK phosphorylation within treated astrocytes were expressed as the mean change in signal intensity compared to the dimethyl sulfoxide (DMSO) vehicle and the half maximal effective concentration (EC50) was determined using non-linear regression.
Primary human astrocytes were purchased from ScienCell Research Laboratories, Inc. and cultured according to the supplier's protocol. The astrocytes were obtained from the human cerebral cortex, cryopreserved at passage one, and delivered frozen. The frozen vials of cells were gently thawed in a 37° C. water bath. Once the contents of the vial were completely thawed, the cell solution was dispensed into a poly-L-lysine (PLL) coated T75 tissue culture flask with 16 mL of human Astrocyte Media, (ScienCell Research Laboratories, Inc.) and incubated at 37° C. 5% CO2. Once the human astrocytes had reached confluency in the T75 flask, they were detached using trypsin/EDTA 0.25%, pelleted at 300×g, split into two PLL coated T225 tissue culture flasks in 40 mL of astrocyte media, and incubated at 37° C. 5% CO2. Once the astrocytes reached confluency in the T225 flasks, they were detached using trypsin/EDTA 0.25% solution, pelleted at 300×g, plated into poly-D-lysine (PDL) coated 96-well plates at a density of 10,000 cells per well in 200 μL human Astrocyte Media, and incubated at 37° C. 5% CO2. Half of the media was replenished every 3-4 days. After 5-7 days of incubation, the P2 human astrocyte plates were utilized for the pERK and pAKT assays.
Cell lysis and detection of pERK were performed according to the PerkinElmer AlphaLISA SureFire Ultra p-ERK1/2 (Thr202/TYR 204) assay protocol. Astrocytes were lysed in the 96-well plate following a 10 minute incubation with compounds with shaking at RT. The astrocytic lysates (10 μL/well) were transferred into a 384-well OptiPlate. As specified by the assay protocol, an acceptor bead mix and a donor bead mix (5 μL/well for each) were added to the plate under subdued light. Plates were sealed with adhesive plate seals and incubated in the dark for 2 hours at RT. The plates were read on the EnVision Plate Reader to assess the pERK levels.
The AKT and ERK phosphorylation data, collected by a Perkin Elmer EnVision Microplate Reader, was analyzed by non-linear regression (GraphPad Prism, version 7.03) to determine the EC50 values.

[3] = system: AKT phosphorylation in primary rat astrocytes; assay: AKT phosphorylation in primary rat astrocytes (MSD pAKT assay); settings: Astrocyte, 10 min, 10-minute exposure, mean of n=4
Protocol: as §1, §2
as §3, with “pAKT” for “pERK”, “AKT)” for “ERK)/pMAPkinase”, “pAKT” for “pERK/pMAPkinase”, “Finally,” for “Finally, the”, “pAKT” for “the pERK”
as §4

CC(C)Oc1ccc(-c2nc(-c3cccc4c3CC[C@@H]4NCCO)no2)cc1C#N [Ozanimod]
EC50 [1]: 0.8 nM
EC50 [2]: 1.93 nM
EC50 [3]: 2.03 nM

CC(C)Oc1ccc(-c2nc(-c3cccc4c3CCC4=O)no2)cc1C#N [Compound 1, 2-isopropoxy-5-(3-(1-oxo-2,3-dihydro-1H-inden-4-yl)-1,2,4-oxadiazol-5-yl)benzonitrile]
EC50 [1]: 0.29 nM
EC50 [2]: 2.12 nM
EC50 [3]: 0.66 nM
